Results reported in article PMC4822050, “Hemi-methylated DNA opens a closed conformation of UHRF1 to facilitate its histone recognition” (Nature Communications, 2016).

Tests used:
[1] = target: T1, TTD (residues 134–285) of UHRF1 (Homo sapiens, UniProt Q96T88); assay: ITC, TTD titrated into Spacer variants and other UHRF1 fragments; format: binding; details: TTD in syringe
T1 construct: TTD (residues 134–285); GST (N, cleaved yes); made in house; host or cells: E. coli BL21 (DE3)
T1 sequence (Q96T88 134-285): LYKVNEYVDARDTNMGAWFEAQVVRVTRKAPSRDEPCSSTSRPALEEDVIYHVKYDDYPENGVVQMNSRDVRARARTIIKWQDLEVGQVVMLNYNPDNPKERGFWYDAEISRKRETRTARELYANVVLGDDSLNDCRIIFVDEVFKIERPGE
Method: (§1) For competition ITC experiments: the indicated proteins were pre-incubated with competitive peptide, protein or hm-DNA (at 1:2 molar ratio if not specified) for 10 min followed by ITC measurements as described above. Proteins, DNA and peptides were prepared within ITC buffer containing 10 mM HEPES, pH 8.0, 100 mM NaCl. The data were fitted by software Origin 7.0. All ITC results were summarized in Supplementary Table 2 and raw data were shown in Supplementary Fig. 9.

[2] = system: H3 peptide (1–17) (H3K9me0); assay: ITC, H3 (H3K9me0) peptide (1-17) titrated into UHRF1 proteins; format: binding
Method: as §1

H3K9me3 peptide (1–17) = assay: ITC, H3K9me3 peptide (1-17) titrated into UHRF1 proteins; format: binding; details: ITC, 18 °C; named protein 0.05 mM in cell, H3K9me3 (1-17) 0.5 mM in syringe; 10 mM HEPES pH 8.0, 100 mM NaCl; read-out: KD
Method: as §1

FAM-12bp-HM-DNA = assay: Fluorescence polarization, 12-bp FAM-hm-DNA; format: binding; details: FP
Method: A 6-carboxy-fluorescein (FAM)-labelled primer, 5′-CCATGCGCTGAC-3′, was annealed to a primer 5′-GTCAGXGCATGG-3′ (X=5-methyldeoxycytosine). The hemi-methylated double-strand DNA was used in both electrophoretic mobility-shift assay and FP assays. […] The samples were subjected to a 10% polyacrylamide gel electrophoresis and run in 0.5 × Tris-borate-EDTA buffer at 100 V for 1 h at 4 °C. The results were visualized on Tanon-5200 Chemiluminescent Imaging System (Tanon Science & Technology Co., Ltd).
(§2) FP measurements were performed at 25 °C on Synergy 4 Microplate Reader (BioTek). The 16-bp and 20-bp FAM-labelled hm-DNA (lower strand: 5′-GTGTCAGXGCATGGCC-3′ and 5′-CCGTGTCAGXGCATGGCCAT-3′, respectively. X=5-methyldeoxycytosine) were used in the FP experiment to test the effect of DNA length on the protein/DNA interaction. All experiments were performed in triplicate. The curves were fitted by GraphPad Prism 5. For salt concentration-dependent FP experiments, the reaction buffer contains 50 mM or 150 mM NaCl, respectively.

[3] = system: DAPI foci (pericentromeric heterochromatin) in NIH3T3 cells; assay: Subcellular localization of GFP-tagged UHRF1 in NIH3T3 cells; format: cell-based; details: GFP-tagged protein transiently overexpressed in NIH3T3 cells, 36 h after transfection; at least 100 cells counted; repeated three times
Method: NIH3T3 cells were obtained from the Shanghai Institute of Biochemistry and Cell Biology. Wild type and mutants of UHRF1 were sub-cloned into pEGFP-C1 vector. Transient transfections of NIH3T3 cells were carried out using Lipofectamine 2000 (Invitrogen). The NIH3T3 cells were grown on glass coverslips and harvested in 36 h after transfection. The images were acquired and examined as previously described. Briefly, cells were fixed with 4% paraformaldehyde for 25 min, then washed with PBS three times. Coverslips were mounted with Antifade reagent containing DAPI (Molecular Probes) on slides and examined with a confocal microscopy.

[4] = target: PHD (residues 307–366) of UHRF1; assay: ITC, PHD titrated into UHRF1 domains; format: binding, human; details: 18 °C, PHD in syringe, named protein in cell, 10 mM HEPES pH 8.0, 100 mM NaCl
Method: as §1

hm-DNA (12 bp) = assay: ITC, hm-DNA titrated into UHRF1 domains; format: binding; details: 18 °C, 12-bp hm-DNA in syringe, named protein in cell, 10 mM HEPES pH 8.0, 100 mM NaCl
Method: as §1

RFTS^DNMT1 = assay: ITC, RFTS of DNMT1 with SRA or SRA-Spacer; format: binding; details: 18 °C, RFTS^DNMT1 with named protein, 10 mM HEPES pH 8.0, 100 mM NaCl
Method: as §1

FAM-16bp-HM-DNA = assay: Fluorescence polarization, 16-bp FAM-hm-DNA; format: binding; details: FP, DNA length series
Method: as §2

FAM-20bp-HM-DNA = assay: Fluorescence polarization, 20-bp FAM-hm-DNA; format: binding; details: FP, DNA length series
Method: as §2

[5] = 25 °C, 20 min, 20 mM HEPES pH 7.5, 175 mM NaCl, 8% glycerol, 1 mM DTT, triplicate, Fig. 5b and Supplementary Table 4

“Spacer587-641: Spacer fragment, residues 587–641 (PGPWTKEGKDRIKKLGLTMQYPEGYLEALANREREKENSKREEEEQQEGGFASPR; left off: GST, end not stated, cleaved)” was tested, and the KD ([1]; ITC, 18 °C, named protein or peptide in cell, 10 mM HEPES pH 8.0, 100 mM NaCl) was “no detectable interaction”.
In the case of “PHD: plant homeodomain of human UHRF1 (residues 307–366) (DDVNRLCRVCACHLCGGRQDPDKQLMCDECDMAFHIYCLDPPLSSVPSEDEWYCPECRND; UniProt Q96T88 307-366, looked up, fragment)”, the “fold higher binding affinity to H3K9me0 peptide than full-length UHRF1” value ([2]; ITC KD ratio) is reported as about 34 fold.
“UHRF1: recombinant human UHRF1 (residues 1–793); GFP-tagged in the cell assay” was tested, and the Kd (H3K9me3 peptide (1–17)) was 4.61 ± 0.47 µM, the Kd ([2]; ITC, 18 °C, named protein 0.05 mM in cell, H3 (1-17) 0.5 mM in syringe, 10 mM HEPES pH 8.0, 100 mM NaCl) was 26 ± 7.01 µM and the Kd (FAM-12bp-HM-DNA; [5]) was 0.35 µM. For the same substance, the “percentage of cells showing co-localization with DAPI foci” value [3] was 74.6%.
“Spacer642-674: Spacer fragment, residues 642–674 (TGKGKWKRKSAGGGPSRAGSPRRTSKKTKVEPY; left off: GST, end not stated, cleaved)” was tested, and the N ([1]; ITC stoichiometry) was 1.09±0.00765, the ΔH ([1]; ITC) was -11.3 kcal/mol and the ΔS ([1]; ITC) was -11.2 cal/mol/deg.
In the case of “SRA: SET-and-RING-associated domain of human UHRF1 (residues 414–617)”, the Kd [4] is reported as 26.7 ± 12.1 µM, the Kd (hm-DNA (12 bp)) is reported as 25.1 µM and the KD (RFTS^DNMT1) is reported as “no detectable interaction”. The Kd (FAM-12bp-HM-DNA; 12-bp hm-DNA, 50 mM NaCl) was 0.15 ± 0.018 µM, the Kd (FAM-12bp-HM-DNA; 12-bp hm-DNA, 150 mM NaCl) was 5.92 ± 1.32 µM and the Kd (FAM-12bp-HM-DNA; [5]) was 9.23 ± 3.07 µM. For the same substance, the Kd (FAM-12bp-HM-DNA; DNA length series, Supplementary Table 5, 12-bp hm-DNA) was 12.8 ± 2.07 µM, the Kd (FAM-16bp-HM-DNA) was 29.4 ± 9.74 µM and the Kd (FAM-20bp-HM-DNA) was 9.59 ± 4.78 µM.
